{"source": "ChEMBL document CHEMBL5032539", "about": "“Indole-Containing Amidinohydrazones as Nonpeptide, Dual RXFP3/4 Agonists: Synthesis, Structure-Activity Relationship, and Molecular Modeling Studies” (J Med Chem, 2021)"}
{"target": "Relaxin-3 receptor 2 (Homo sapiens, UniProt Q8TDU9)", "sequence (Q8TDU9 whole entry)": "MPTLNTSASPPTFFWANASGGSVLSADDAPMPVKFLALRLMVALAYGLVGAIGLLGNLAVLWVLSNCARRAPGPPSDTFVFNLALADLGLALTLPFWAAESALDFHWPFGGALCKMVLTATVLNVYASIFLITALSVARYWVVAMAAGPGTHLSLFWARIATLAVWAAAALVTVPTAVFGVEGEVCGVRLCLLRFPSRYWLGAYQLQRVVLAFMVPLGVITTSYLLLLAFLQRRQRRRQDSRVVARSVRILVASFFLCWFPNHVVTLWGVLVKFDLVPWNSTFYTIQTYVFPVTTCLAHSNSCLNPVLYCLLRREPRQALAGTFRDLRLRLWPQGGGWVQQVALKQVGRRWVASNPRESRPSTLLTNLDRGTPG", "assay": "not given", "conditions": "not given", "units": {"EC50": "nM"}}
{"smiles": "CCc1cc(O)cc2c(/C=N/NC(=N)NCCc3ccc(Cl)cc3)c[nH]c12", "EC50": 0.8}
{"smiles": "COC(=O)c1ccc(CCNC(=N)N/N=C/c2c[nH]c3c(C)cc(OC)cc23)cc1", "EC50": 3.4}
{"smiles": "CCc1cc(OC)cc2c(/C=N/NC(=N)NCCc3ccc(C#N)cc3)c[nH]c12", "EC50": 1.8}
{"smiles": "CCc1cc(OC)cc2c(/C=N/NC(=N)NCCc3ccc(F)cc3)c[nH]c12", "EC50": 4}
{"smiles": "CCc1cc(OC)cc2c(/C=N/NC(=N)NCCc3cccnc3)c[nH]c12", "EC50": 1.1}
{"smiles": "COC(=O)c1ccc(CCNC(=N)N/N=C/c2c[nH]c3c(C)cc(C#N)cc23)cc1", "EC50": 2.7}
{"smiles": "CCc1cc(C#N)cc2c(/C=N/NC(=N)NCCc3cccnc3)c[nH]c12", "EC50": 0.9}
{"system": "not listed separately", "assay": "physchem", "conditions": "buffer, pH 7.4", "units": {"solubility kinetic at 2 h": "µM"}}
{"smiles": "CCc1cc(OC)cc2c(/C=N/NC(=N)NCCc3ccc(F)cc3)c[nH]c12", "solubility kinetic at 2 h": 19.5}
{"smiles": "CCc1cc(OC)cc2c(/C=N/NC(=N)NCCc3cccnc3)c[nH]c12", "solubility kinetic at 2 h": 74.6}
{"target": "T1, Relaxin-3 receptor 1 (Homo sapiens, UniProt Q9NSD7)", "T1 sequence (Q9NSD7 whole entry)": "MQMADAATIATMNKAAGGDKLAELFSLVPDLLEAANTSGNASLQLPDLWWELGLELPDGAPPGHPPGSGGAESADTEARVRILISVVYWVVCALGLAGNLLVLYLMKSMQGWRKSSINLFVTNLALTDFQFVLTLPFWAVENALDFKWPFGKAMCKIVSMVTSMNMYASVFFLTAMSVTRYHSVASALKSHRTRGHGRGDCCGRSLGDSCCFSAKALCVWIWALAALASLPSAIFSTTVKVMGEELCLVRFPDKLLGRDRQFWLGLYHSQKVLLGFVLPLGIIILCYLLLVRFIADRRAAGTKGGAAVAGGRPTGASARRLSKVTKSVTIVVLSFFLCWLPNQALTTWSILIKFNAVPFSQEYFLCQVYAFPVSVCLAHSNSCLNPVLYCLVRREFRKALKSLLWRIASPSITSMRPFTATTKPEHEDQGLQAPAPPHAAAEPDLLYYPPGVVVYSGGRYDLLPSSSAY", "assay": "biochemical", "conditions": "not given", "units": {"Ki": "nM"}}
{"smiles": "COc1cc(C)c2[nH]cc(/C=N/NC(=N)NCCc3ccc(C#N)cc3)c2c1", "Ki": 268}
{"target": "T1, Relaxin-3 receptor 1", "assay": "not given", "conditions": "not given", "units": {"EC50": "nM"}}
{"smiles": "COc1cc(C)c2[nH]cc(/C=N/NC(=N)NCCc3ccc(Cl)cc3)c2c1", "EC50": 74.7}
{"smiles": "COC(=O)c1ccc(CCNC(=N)N/N=C/c2c[nH]c3c(C)cc(OC)cc23)cc1", "EC50": 7.7}
{"smiles": "COc1cc(C)c2[nH]cc(/C=N/NC(=N)NCCc3ccc(I)cc3)c2c1", "EC50": 67}
{"smiles": "COc1ccc(CCNC(=N)N/N=C/c2c[nH]c3c(C)cc(OC)cc23)cc1", "EC50": 56.1}
{"smiles": "N#Cc1ccc2[nH]cc(/C=N/NC(=N)NCCc3ccc(Cl)cc3)c2c1", "EC50": 253}
{"smiles": "Cc1ccc2c(/C=N/NC(=N)NCCc3ccc(Cl)cc3)c[nH]c2c1", "EC50": 7440}
{"smiles": "COc1cc(C)c2[nH]cc(/C=N/NC(=N)Nc3ccc(Cl)cc3)c2c1", "EC50": 3120}
{"smiles": "Cc1cc(C#N)cc2c(/C=N/NC(=N)NCCc3ccc(Cl)cc3)c[nH]c12", "EC50": 82.3}
{"smiles": "COc1cc(C)c2[nH]cc(/C=N/NC(=N)NCCc3ccc([N+](=O)[O-])cc3)c2c1", "EC50": 13.6}
{"smiles": "COc1ccc2c(/C=N/NC(=N)NCCc3ccc(Cl)cc3)c[nH]c2c1", "EC50": 4750}
{"smiles": "CCc1cc(OC)cc2c(/C=N/NC(=N)NCCc3ccc(Cl)cc3)c[nH]c12", "EC50": 19.5}
{"smiles": "COc1cc(C)c2[nH]cc(/C=N/NC(=N)NCCc3ccc(N(C)C)cc3)c2c1", "EC50": 98.4}
{"smiles": "Cc1cccc2c(/C=N/NC(=N)NCCc3ccc(Cl)cc3)c[nH]c12", "EC50": 647}
{"smiles": "COc1cc(C)c2[nH]cc(/C=N/NC(=N)NCCCc3ccc(Cl)cc3)c2c1", "EC50": 1660}
{"smiles": "CCc1cc(OC)cc2c(/C=N/NC(=N)NCCc3ccc(F)cc3)c[nH]c12", "EC50": 5.6}
{"smiles": "N=C(NCCc1ccc(Cl)cc1)N/N=C/c1c[nH]c2cc(F)ccc12", "EC50": 3470}
{"smiles": "CCc1cc(OC)cc2c(/C=N/NC(=N)NCCc3cccnc3)c[nH]c12", "EC50": 2.3}
{"smiles": "COc1cc(C)c2[nH]cc(/C=N/NC(=N)NCCc3ccc(Br)cc3)c2c1", "EC50": 69.9}
{"smiles": "N=C(NCCc1ccc(Cl)cc1)N/N=C/c1c[nH]c2cccc(F)c12", "EC50": 3210}
{"smiles": "N=C(NCCc1ccc(Cl)cc1)N/N=C/c1c[nH]c2ccccc12", "EC50": 6940}
{"smiles": "COc1ccc2[nH]cc(/C(C)=N/NC(=N)NCCc3ccc(Cl)cc3)c2c1", "EC50": 7690}
{"smiles": "COc1cc(C)c2[nH]cc(/C=N/NC(=N)NCCc3ccccc3)c2c1", "EC50": 224}
{"smiles": "COc1cc(C)c2[nH]cc(/C=N/NC(=N)NCCc3ccccn3)c2c1", "EC50": 855}
{"smiles": "N=C(NCCc1ccc(Cl)cc1)N/N=C/c1c[nH]c2ccc(Cl)cc12", "EC50": 2820}
{"smiles": "N=C(NCCc1ccc(Cl)cc1)N/N=C/c1c[nH]c2c(F)cccc12", "EC50": 2790}
{"smiles": "N=C(NCCc1ccc(Cl)cc1)N/N=C/c1c[nH]c2ccc(F)cc12", "EC50": 1360}
{"smiles": "COc1cc(C)c2[nH]cc(/C=N/NC(=N)NCc3ccc(Cl)cc3)c2c1", "EC50": 3950}
{"smiles": "N=C(NCCc1ccc(Cl)cc1)N/N=C/c1c[nH]c2ccc([N+](=O)[O-])cc12", "EC50": 317}
{"smiles": "COc1cc(C)c2[nH]cc(/C=N/NC(=N)NCCc3ccc(C#N)cc3)c2c1", "EC50": 13.2}
